Results taken from PubChem BioAssay AID248 (DTP/NCI, 2004).
Where “and” joins values, the source holds several entries; their conditions need not be identical. Equal entries are not always repeated. Inconclusive results and toxic doses are left out. Cut-off read from the data, not from the text of the source: active = T/C of 150% or more; inactive = T/C below 125%.

Tested on: L1210 leukemia ip in BDF1 mice, survival T/C
Experiment: NCI In Vivo Anticancer Drug Screen. Data for tumor model L1210 Leukemia (intraperitoneal) in B6D2F1 (BDF1) mice
Conditions: endpoint: mean survival time, higher = longer survival
Summary of the method: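 Tumor was transplanted into mice, which were then dosed with test compound or vehicle alone. Survival was recorded for each group, and the treated figure was expressed relative to the control figure.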

[1] = dose: 100.0 mg/kg/injection, schedule: Q04DX002 (ip), vehicle: saline
[2] = dose: 200.0 mg/kg/injection, schedule: Q04DX002 (ip), vehicle: saline
[3] = dose: 100.0 mg/kg/injection, schedule: Q01DX001 (ip), vehicle: other
[4] = dose: 100.0 mg/kg/injection, schedule: Q01DX009 (ip), vehicle: saline with Tween-80
[5] = dose: 100.0 mg/kg/injection, schedule: Q04DX003 (ip), vehicle: Klucel (hydroxypropylcellulose) (HPC)
[6] = dose: 200.0 mg/kg/injection, schedule: Q01DX009 (ip), vehicle: saline with Tween-80
[7] = dose: 200.0 mg/kg/injection, schedule: Q04DX003 (ip), vehicle: Klucel (hydroxypropylcellulose) (HPC)
[8] = dose: 400.0 mg/kg/injection, schedule: Q01DX009 (ip), vehicle: saline with Tween-80
[9] = dose: 400.0 mg/kg/injection, schedule: Q04DX003 (ip), vehicle: Klucel (hydroxypropylcellulose) (HPC)
[10] = dose: 50.0 mg/kg/injection, schedule: Q04DX003 (ip), vehicle: saline with Tween-80
[11] = dose: 100.0 mg/kg/injection, schedule: Q04DX003 (ip), vehicle: saline with Tween-80
[12] = dose: 100.0 mg/kg/injection, schedule: Q01DX001 (ip), vehicle: carboxymethylcellulose (CMC)
[13] = dose: 200.0 mg/kg/injection, schedule: Q01DX001 (ip), vehicle: carboxymethylcellulose (CMC)
[14] = dose: 400.0 mg/kg/injection, schedule: Q01DX001 (ip), vehicle: carboxymethylcellulose (CMC)
[15] = dose: 200.0 mg/kg/injection, schedule: Q04DX003 (ip), vehicle: saline with Tween-80
[16] = dose: 400.0 mg/kg/injection, schedule: Q04DX003 (ip), vehicle: saline with Tween-80
[17] = dose: 400.0 mg/kg/injection, schedule: Q04DX002 (ip), vehicle: saline
[18] = dose: 25.0 mg/kg/injection, schedule: Q01DX009 (ip), vehicle: saline
[19] = dose: 50.0 mg/kg/injection, schedule: Q01DX009 (ip), vehicle: saline
[20] = dose: 12.5 mg/kg/injection, schedule: Q04DX002 (ip), vehicle: saline
[21] = dose: 50.0 mg/kg/injection, schedule: Q04DX002 (ip), vehicle: saline
[22] = dose: 100.0 mg/kg/injection, schedule: Q01DX009 (ip), vehicle: Klucel (hydroxypropylcellulose) (HPC)
[23] = dose: 200.0 mg/kg/injection, schedule: Q01DX009 (ip), vehicle: Klucel (hydroxypropylcellulose) (HPC)

Measured: T/C

CC(=O)OCC(=O)[C@@]1(O)CC[C@H]2[C@@H]3C[C@H](F)C4=CC(=O)CC[C@]4(C)[C@H]3C(=O)C[C@@]21C
inactive: dose: 0.78 mg/kg/injection, schedule: Q01DX005 (ip), vehicle: saline 102 % of control | dose: 1.56 mg/kg/injection, schedule: Q01DX005 (ip), vehicle: saline 102 % of control | dose: 3.12 mg/kg/injection, schedule: Q01DX005 (ip), vehicle: saline 104 % of control | dose: 100.0 mg/kg/injection, schedule: Q01DX001 (sc), vehicle: steriod suspending solution 96 % of control | dose: 200.0 mg/kg/injection, schedule: Q01DX001 (sc), vehicle: steriod suspending solution 104 % of control | dose: 400.0 mg/kg/injection, schedule: Q01DX001 (sc), vehicle: steriod suspending solution 102 % of control

CNC(=O)Oc1ccc2c(C)cc(=O)oc2c1
inactive: [1] 94 % of control | [2] 105 % of control

O=C(OCCN1CCCCCCCC1)C(c1ccccc1)c1ccccc1
inactive: [3] 101 % of control | dose: 200.0 mg/kg/injection, schedule: Q01DX001 (ip), vehicle: other 90 % of control | dose: 400.0 mg/kg/injection, schedule: Q01DX001 (ip), vehicle: other 110 % of control

COc1ccccc1C1OCC(C)(C)N1C (stereo not given)
inactive: [4] 101 % of control | [5] 97 % of control and 105 % of control | [6] 95 % of control | [7] 95 % of control | [8] 102 % of control | [9] 94 % of control and 93 % of control

O=C(COc1ccccc1C(=O)O)NCc1ccc(Cl)cc1
inactive: dose: 100.0 mg/kg/injection, schedule: Q04DX003 (ip), vehicle: gum acacia 97 % of control | dose: 200.0 mg/kg/injection, schedule: Q04DX003 (ip), vehicle: gum acacia 95 % of control | dose: 400.0 mg/kg/injection, schedule: Q04DX003 (ip), vehicle: gum acacia 96 % of control

CN=Cc1ccccc1
inactive: [10] 91 % of control | [11] 94 % of control

CNC(=O)Oc1cccc(CN(C)C)c1
inactive: dose: 5.0 mg/kg/injection, schedule: Q01DX001 (ip), vehicle: saline 98 % of control | dose: 10.0 mg/kg/injection, schedule: Q01DX001 (ip), vehicle: saline 96 % of control | dose: 20.0 mg/kg/injection, schedule: Q01DX001 (ip), vehicle: saline 96 % of control

S=C(NP(=S)(NC(=S)N1CC1)NC(=S)N1CC1)N1CC1
inactive: [12] 95 % of control | [13] 91 % of control | [14] 90 % of control

CC(C)(C)C1CCC(OC=O)CC1 (stereo not given)
inactive: [5] 92 % of control | [7] 93 % of control

CCOC(=O)c1ccc(N)cc1
inactive: dose: 37.5 mg/kg/injection, schedule: Q01DX009 (ip), vehicle: saline with Tween-80 107 % of control | dose: 50.0 mg/kg/injection, schedule: Q01DX001 (ip), vehicle: saline with Tween-80 97 % of control | dose: 75.0 mg/kg/injection, schedule: Q01DX009 (ip), vehicle: saline with Tween-80 107 % of control | dose: 100.0 mg/kg/injection, schedule: Q01DX001 (ip), vehicle: saline with Tween-80 105 % of control | dose: 150.0 mg/kg/injection, schedule: Q01DX009 (ip), vehicle: saline with Tween-80 91 % of control | dose: 200.0 mg/kg/injection, schedule: Q01DX001 (ip), vehicle: saline with Tween-80 94 % of control

CCOC(=O)c1cc(N)c(N2CCCC2)cc1Cl
inactive: [4] 109 % of control | [11] 93 % of control | [6] 98 % of control | [15] 93 % of control | [8] 95 % of control | [16] 93 % of control

Cc1ccccc1N1CCN(c2ccccc2C)C1=C1N(c2ccccc2C)CCN1c1ccccc1C
inactive: dose: 100.0 mg/kg/injection, schedule: Q04DX002 (ip), vehicle: DMSO 103 % of control | dose: 200.0 mg/kg/injection, schedule: Q04DX002 (ip), vehicle: DMSO 98 % of control

CCOC(=O)c1ccc(NC(=O)c2cccc(F)c2)cc1
inactive: [1] 91 % of control | [2] 105 % of control | [17] 109 % of control

CC1CC(C)(C)N=C(CCC2CCCC2=O)O1 (stereo not given)
inactive: dose: 50.0 mg/kg/injection, schedule: Q01DX009 (ip), vehicle: saline with Tween-80 104 % of control | [10] 95 % of control | [4] 98 % of control | [11] 91 % of control | [6] 100 % of control | [15] 96 % of control | [8] 100 % of control | [16] 91 % of control

O=[N+]([O-])c1ccc(N2CCCCC2)c([N+](=O)[O-])c1
inactive: [18] 96 % of control | [19] 102 % of control | dose: 100.0 mg/kg/injection, schedule: Q01DX009 (ip), vehicle: saline 96 % of control | dose: 200.0 mg/kg/injection, schedule: Q01DX009 (ip), vehicle: saline 98 % of control | dose: 400.0 mg/kg/injection, schedule: Q01DX009 (ip), vehicle: saline 96 % of control

CC(O)C#CC#CC(C)O (stereo not given)
inactive: dose: 12.5 mg/kg/injection, schedule: Q01DX009 (ip), vehicle: saline 103 % of control | [20] 113 % of control | [18] 109 % of control | dose: 25.0 mg/kg/injection, schedule: Q04DX002 (ip), vehicle: saline 109 % of control | [19] 101 % of control | [21] 94 % of control

C=NNC(=O)c1ccncc1
inactive: [11] 89 % of control | [15] 94 % of control | [16] 88 % of control

C[CH2][Sn]([CH2]C)([CH2]C)[O]C(=O)CO
inactive: dose: 3.12 mg/kg/injection, schedule: Q04DX002 (ip), vehicle: saline 93 % of control | dose: 6.25 mg/kg/injection, schedule: Q04DX002 (ip), vehicle: saline 117 % of control | [20] 104 % of control

CC(=O)c1cccc(NC(=O)Nc2ccccc2)c1
inactive: [22] 94 % of control | [5] 100 % of control | [23] 98 % of control | [7] 96 % of control | dose: 400.0 mg/kg/injection, schedule: Q01DX009 (ip), vehicle: Klucel (hydroxypropylcellulose) (HPC) 100 % of control | [9] 97 % of control

O=C(Nc1ccc(N(CCCl)CCCl)cc1)c1ccc([N+](=O)[O-])cc1
inactive: [21] 104 % of control | [1] 95 % of control | [2] 117 % of control | [17] 114 % of control

Cc1cc(C(=O)C(=O)OC(c2ccccc2)c2ccccc2)c(CN2C(=O)c3ccccc3C2=O)c(=O)n1C
inactive: dose: 25.0 mg/kg/injection, schedule: Q04DX002 (ip), vehicle: saline with Tween-80 101 % of control | dose: 50.0 mg/kg/injection, schedule: Q04DX002 (ip), vehicle: saline with Tween-80 108 % of control | dose: 100.0 mg/kg/injection, schedule: Q04DX002 (ip), vehicle: saline with Tween-80 108 % of control

COC(=O)CCCCC(=O)OC
inactive: [4] 103 % of control | [6] 102 % of control | [8] 102 % of control

COC(=O)C1=C2c3ccc(OC)cc3CCC2C(=O)C1 (stereo not given)
inactive: [5] 97 % of control | [7] 105 % of control | [9] 89 % of control

O=c1[nH]c2ccc(Cl)cc2c2nc3ccccc3n12
inactive: dose: 50.0 mg/kg/injection, schedule: Q01DX009 (ip), vehicle: Klucel (hydroxypropylcellulose) (HPC) 107 % of control | [22] 101 % of control | [23] 92 % of control

c1ccc(B2Nc3ccccc3-c3ccccc32)cc1
inactive: [11] 98 % of control | [15] 96 % of control | [16] 98 % of control

Cc1ccc(CCNc2ncnc(Cl)c2N)cc1
inactive: dose: 50.0 mg/kg/injection, schedule: Q01DX001 (ip), vehicle: other 88 % of control | [3] 92 % of control

O=S(c1cc(Br)ccc1O)c1cc(Br)ccc1O
inactive: [12] 98 % of control | [13] 93 % of control | [14] 90 % of control

CCC(CC=C(C)C)(CC=C(C)C)c1ccncc1 (tested in a mixture with another compound)
inactive: dose: 100.0 mg/kg/injection, schedule: Q01DX001 (ip), vehicle: saline 97 % of control | dose: 200.0 mg/kg/injection, schedule: Q01DX001 (ip), vehicle: saline 102 % of control | dose: 400.0 mg/kg/injection, schedule: Q01DX001 (ip), vehicle: saline 97 % of control
